{
  "source": "patent US20070161578A1",
  "about": "“Treatment of nonalcoholic fatty liver disease using cholesterol lowering agents and/or H3 receptor antagonist/inverse agonist” (priority 2005, published 2007)",
  "key": {"[1]": {"system": "Diet-induced obese (DIO) mice", "assay": "Diet-induced obese (DIO) mice with hepatic steatosis, four weeks treatment (first example)", "assay_type": "in vivo", "details": "ezetimibe 5 mg/kg/day, formula XIIIA 12 mg/kg/day, or both", "experimental": "The mice were sacrificed and the liver weight, liver triglyceride level and liver free cholesterol content were determined for each group were determined and summarized in FIGS. 1 to 4."}, "[2]": {"system": "Niemann-Pick type C mice", "details": "ezetimibe treatment; cited from earlier work"}, "[3]": {"system": "DIO mice", "assay": "DIO C57BL/6J mice on high fat/cholesterol diet, 4 weeks ezetimibe in diet (Example 3)", "assay_type": "in vivo", "set-up": "liver to body weight ratio (FIG. 6), top dose group: dose or concentration left out as unconfirmed", "text": "C57BL/6J mice were fed a high fat/cholesterol diet (Research Diets, with 45% Kcal fat and 0.12% w/w cholesterol) for 7 months after weaning."}, "[4]": {"system": "Diet induced obese (DIO) mice", "assay": "DIO mice with hepatic steatosis and fibrosis, plasma ALT after four weeks treatment (Example 2)", "assay_type": "in vivo", "details": "formula XIIID 9 mg/kg/day, alone or with ezetimibe 2 mg/kg/day", "protocol": "Diet induced obese (DIO) mice, which had developed obesity, dyslipidemia, hepatic steatosis and fibrosis by feeding them a western diet containing 45% fat and 0.12% cholesterol for seven months, were divided into four groups and treated with nothing (control), ezetimibe (formula II) (2 mg/kg/day), the compound of formula XIIID (9 mg/kg/day) or a combination of ezetimibe (2 mg/kg/day) and compound of formula XIIID (9 mg/kg/day) for four weeks. The mice were sacrificed and the plasma alanine aminotransferase (ALT) enzyme activities, a plasma biomarker of liver injury with steatohepatitis, were determined for each group, this is summarized in FIG. 5."}, "[5]": {"details": "after 4 weeks of ezetimibe treatment"}, "[6]": {"details": "after 4 weeks, ezetimibe-treated DIO mice compared to the control"}, "[7]": {"details": "after 4 weeks, livers from ezetimibe-treated mice"}, "[8]": {"details": "ezetimibe 1.6 and 5.3 mg/kg/day, compared to the control group"}},
  "data": [
    {"smiles": "O=C1[C@H](CC[C@H](O)c2ccc(F)cc2)[C@@H](c2ccc(O)cc2)N1c1ccc(F)cc1", "note": "[ezetimibe]", "values": [
      {"measurement": "effect in treating NAFLD (conclusion from FIGS. 1 to 4)", "setting": "[1]", "result": "effective in treating NAFLD"},
      {"measurement": "liver cholesteryl ester content (FIG. 3)", "setting": "[1]; vs control", "result": "decrease in liver cholesteryl ester content"},
      {"measurement": "liver free cholesterol content (FIG. 4)", "setting": "[1]; vs control", "result": "decrease in liver cholesterol content"},
      {"measurement": "liver triglyceride levels (FIG. 2)", "setting": "[1]; vs control", "result": "decrease in liver triglyceride levels"},
      {"measurement": "liver weight (liver to body weight ratio, FIG. 1)", "setting": "[1]; vs control", "result": "decrease in liver weight"},
      {"measurement": "hepatic cholesterol accumulation", "setting": "[2]", "result": "reduced hepatic cholesterol accumulation"},
      {"measurement": "histological abnormalities", "setting": "[2]", "result": "improved histological abnormalities"},
      {"measurement": "liver enzymes", "setting": "[2]", "result": "improved"},
      {"measurement": "HDL-C", "setting": "[3]; [5]", "result": "not changed"},
      {"measurement": "LDL-C", "setting": "[3]; [5]", "result": "significant decreases"},
      {"measurement": "VLDL-C", "setting": "[3]; [5]", "result": "significant decreases"},
      {"measurement": "reduction of plasma triglyceride", "setting": "[3]; [5]", "result": 15, "unit": "%"},
      {"measurement": "reduction of total plasma cholesterol", "setting": "[3]; [5]", "result": 30, "unit": "%"},
      {"measurement": "liver to body weight ratio", "setting": "[3]; [6]", "result": "significantly reduced"},
      {"measurement": "liver wet weight", "setting": "[3]; [6]", "result": "significantly reduced"},
      {"measurement": "liver cholesteryl esters", "setting": "[3]; [7]", "result": "significantly lower"},
      {"measurement": "liver free cholesterol", "setting": "[3]; [7]", "result": "significantly lower"},
      {"measurement": "liver triglyceride", "setting": "[3]; [7]", "result": "significantly lower"},
      {"measurement": "liver triglyceride levels (FIG. 7), across doses", "setting": "[3]; all groups that received ezetimibe, 4 weeks", "result": "dose-dependent decrease in liver triglyceride levels"},
      {"measurement": "liver to body weight ratio (FIG. 6), across doses", "setting": "[3]; ezetimibe 0.5, 1.6 and 5.3 mg/kg/day, 4 weeks", "result": "dose-dependent decrease in liver to body weight ratio"},
      {"measurement": "liver cholesterol content (FIG. 9)", "setting": "[3]; [8]", "result": "significant decrease in liver cholesterol content"},
      {"measurement": "liver cholesteryl ester content (FIG. 8)", "setting": "[3]; [8]", "result": "significant decrease in liver cholesteryl ester content"},
      {"measurement": "liver to body weight ratio (FIG. 6), top dose group", "setting": "[3]; ezetimibe, 4 weeks", "result": "greatest decline in liver to body weight ratio"},
      {"measurement": "VLDL-TG production rates", "setting": "[3]; ezetimibe-treated vs control DIO mice", "result": "comparable"}
    ]},
    {"smiles": "CO/N=C(/c1ccccn1)C1CCN(C(=O)C2(F)CCN(Cc3ccnc(N)c3)CC2)CC1", "note": "[formula XIIID]", "values": [
      {"measurement": "plasma alanine aminotransferase (ALT) enzyme activities (FIG. 5)", "setting": "[4]", "result": "decrease in plasma ALT"}
    ]}
  ]
}
